The values that follow come from paper PMC9933440 (Crystal Growth & Design, 2022).

For data set [1] the following is noted: pKa (base) – pKa (acid); for ΔpKa for MEL: hydroxyl group of MEL; for ΔpKa for PRM: hydroxyl group of PRM.
The conditions of data set [2]: ref 77 (4AP), ref 78 (4DMP), ref 79 (PPZ); cited from earlier work.
The conditions of data set [3]: cited from earlier work.
For data set [4] the following is noted: pH 7.4; cited from earlier work.
The nature of a further data set: physchem. As to conditions: pH 6.5. As for the experimental part: Solubility experiments were conducted in sodium phosphate buffer solutions at pH 6.5 and 37 °C to simulate intestinal physiological conditions. For each experiment, an excess crystalline solid was sieved through a 300 μm sieve and introduced into a flask with a screw top containing 100 mL of the medium. The solution was stirred at 200 rpm using a magnetic stir bar for 48 h to reach the equilibrium state. […] After each sampling, the volume of the liquid removed from the suspension was not compensated. The withdrawn suspension was filtered through 0.2 μm nylon filters and diluted prior to high-performance liquid chromatography (HPLC) analysis. The solubility experiment for each crystal form was repeated in triplicate. After the last sample collection, the remaining solid material in the suspension was filtered, dried, and characterized by IR and PXRD.
A C18 HPLC column (YMC-Pack ODS-A column, 4.6 mm × 250 mm, 5 μm) with a flow rate of 1 mL min^–1 was employed, and the column temperature was set at 25 °C. The binary mobile phase consisted of acetonitrile and sodium phosphate buffer (pH 6.5) in a volume ratio of 25:75. The samples were diluted appropriately with the mobile phase, and the absorbance was measured at 347 nm.

The conditions of data set [5]: cited from earlier work. The source holds these as a separate data set.

With `Nc1ccncc1` [4AP, 4-aminopyridine], in data set [1], the “ΔpKa for MEL” value was found to be 8.08 and the “ΔpKa for PRM” value turned out to be 7.31. Moreover, the “pKa in water (salt former)” value in data set [2] is 9.17[77].

For `CN(C)c1ccncc1` [4DMP, 4-dimethylaminopyridine], in data set [1], the “ΔpKa for MEL” value is recorded as 8.61 and the “ΔpKa for PRM” value stood at 7.84.

For the compound `CC(=O)Oc1ccccc1C(=O)O.Cc1cnc(NC(=O)C2=C(O)c3ccccc3S(=O)(=O)N2C)s1` [MEL Aspirin], the “bioavailability vs parent API (fold)” value in data set [3] was 4.4 x. For the same compound, the “solubility vs parent API (fold)” value in data set [4] is on record as 44 x.

As to `Cc1cnc(NC(=O)C2=C(O)c3ccccc3S(=O)(=O)N2C)s1` [MEL, meloxicam], in the data set “physchem”, the “time to highest solubility / maximum dissolved concentration / equilibrium” value came out at 90 min. In addition, the “degradation at lower pH” value in data set [5] (pH <3) is recorded as “significant degradation”.

For the compound `CN1C(C(=O)Nc2ccccn2)=C(O)c2ccccc2S1(=O)=O.NS(=O)(=O)c1cc(C(=O)O)c(NCc2ccco2)cc1Cl` [PRM furosemide], in data set [5], the “stability under accelerated aging” value is recorded as “good stability under accelerated aging” and the thermal stability entry is reported as “good thermal stability”.
